Assay [1] deals with Giardia intestinalis. Briefly: Anti-parasitic activity against Giardia intestinalis assemblage A ATCC 30957 trophozoites assessed as inhibition of cyst production incubated for 24 hrs. Type of assay: functional, organism-based. The note with it: Giardia duodenalis, assemblage A ATCC 30957, 24 h.
For assay [2], the system named is Giardia intestinalis. Briefly: Anti-parasitic activity against Giardia intestinalis assemblage A ATCC 30957 trophozoites assessed as inhibition of parasite growth incubated for 24 hrs. The following applies: Giardia duodenalis, assemblage A ATCC 30957, 24 h. Type of assay: functional, organism-based.

SMILES strings stand for the structures.

As a reminder, the IC50 is the concentration needed to halve the response being measured. In the case of `CCCC(=O)N[C@@H]1[C@@H](N=[N+]=[N-])C=C(C(=O)O)C[C@H]1OC(CC)CC`, the IC50 came out at 46 µM in the assay with Giardia intestinalis [1] and 51 µM in the assay with Giardia intestinalis [2].
In the case of `CCOC(=O)C1=C[C@@H](OC(CC)CC)[C@H](NC(C)=O)[C@@H](N)C1` [OSELTAMIVIR], the IC50 was 46 µM in the assay with Giardia intestinalis [1] and above 120 µM in the assay on Giardia intestinalis [2].
Take `CCOC(=O)C1=C[C@H](NC(=O)CF)[C@@H](NC(C)=O)[C@H](OC(CC)CC)C1`: the IC50 with Giardia intestinalis [1] stood at 41 µM; in the assay on Giardia intestinalis [2], 54 µM.
With `Cc1ncc([N+](=O)[O-])n1CCO` [METRONIDAZOLE], the IC50 in the assay with Giardia intestinalis [1] and in the assay with Giardia intestinalis [2] was 4 µM each time.
In the case of `CCC(CC)O[C@@H]1CC(C(=O)O)=C[C@H](N=[N+]=[N-])[C@H]1NC(C)=O`, the IC50 came out at 50 µM in the assay on Giardia intestinalis [1] and 30 µM with Giardia intestinalis [2].
For `CCC(CC)O[C@@H]1CC(C(=O)O)=C[C@H](NC(C)=O)[C@H]1NC(C)=O`, the IC50 with Giardia intestinalis [1] was 41 µM; with Giardia intestinalis [2] it was 40 µM.
For `CCC(CC)O[C@@H]1CC(C(=O)O)=C[C@H](N)[C@H]1NC(C)=O`, the IC50 stood at 42 µM in the assay on Giardia intestinalis [1] and 49 µM in the assay on Giardia intestinalis [2].

The record behind these values is ChEMBL document CHEMBL6087425, “Synthesis and evaluation of anti-Giardia activity of oseltamivir analogs” (Bioorg Med Chem Lett, 2025).
